Laboratory results taken from patent US6500819B2, “Bicyclolactam compounds, use thereof and intermediates for preparing thereof” (Taiho Pharmaceutical Company Limited, priority 1994, dated 2002).

How the values were obtained:
ddY mice [1] = test: Effect on central nervous system depressant (ethanol enhancing method), second part
Method: (§1) Effect on central nervous system depressant (Ethanol enhancing method)
(§2) Compound 1′a-1, the comparison compound, diazepam or buspirone was suspended in a 0.5% sodium carboxymethyl cellulose solution, and the suspension was orally administered to 3- to 4-week-old male ddY mice (in groups of 6) in a volume of 10 ml/kg one hour before the start of experiment.
(§3) The test was conducted with reference to a method described in Japan. J. Pharmacol., 49, 337˜349(1989). More specifically, the group of mice were intraperitoneally given 25% ethanol at a dose of 20 ml/kg and checked for the time interval between loss and recovery of the righting reflex.

ddY mice [2] = test: Acute toxicity test (number of deaths), second part; assay type: in vivo; settings: 6 mice, observed for 3 days
ddY mice [3] = test: Muscle relaxant effect (traction method), second part
Method: (§4) Muscle Relaxant Effect (Traction Method)
(§5) Compound 1′a-1, the comparison compound, diazepam or buspirone was suspended in a 0.5% sodium carboxymethyl cellulose solution, and the suspension was orally administered to 3- to 4-week-old male ddY mice (in groups of 5) in a volume of 10 ml/kg one hour before the start of experiment.
(§6) With reference to a method described in Japan. J. Pharmacol., 49. 337˜349(1989), the foreleg of the mouse was hung on a horizontal wire, having a diameter of 1.2 mm and fixed at a level of 30 cm, three times consecutively. […] Thus, ED5 0 was determined for evaluation. […] Diazepam and buspirone were 2.2 mg/kg and 427.8 mg/kg, respectively, in ED5 0.

ddY mice [4] = test: Sedative effect (spontaneous locomotor activity), second part
Method: Sedative Effect (Spontaneous locomotor activity)
as §5
The test was conducted with reference to a method described in “Evaluation of Medicinal Efficacies (1), Pharmacological Test Method (I), Basic Lectures on Development of Pharmaceuticals,” 50˜54(1971). More specifically, the group of mice were given the test drug and thereafter measured the amount of spontaneous locomotor activity for 10 minutes per mouse using Animex MK-110 (Muromachi Kikai Co., Ltd.).

ddY mice [5] = test: Anticonvulsant effect (pentylenetetrazol-induced convulsion method), second part; assay type: in vivo; settings: for Anticonvulsant effect (in words): oral, dose of 300 mg/kg
Method: Anticonvulsant Effect (Pentylenetetrazol-induced Convulsion Method)
Compound 1′a-1, the comparison compound, diazepam or j buspirone was suspended, in a 0.5% sodium carboxymethyl cellulose solution, and the suspension was orally administered to 3- to 4-week-old maple ddY mice (in groups of 6) in a volume of 10 ml/kg one hour before the start of experiment.
The test was conducted with reference to a method described in “Evaluation of Medicinal Efficacies (1), Pharmacological Test Method (I), Basic Lectures on Development of Pharmaceuticals,” 167˜172(1971).

Wistar rats [6] = test: Anticonflict test (first part, Test Example 1); assay type: in vivo; settings: for Frequency of water drinking behavior: 1 h before test, value relative to control = 100; for Anxiolytic effect in the anticonflict test (in words): oral, compounds at doses of 0.001 to 1.0 mg/kg
Method: (§7) Wistar rats (males weighing 140 to 160 g) were used for experiment in groups of 11 to 14.
The test compound, diazepam or buspirone was suspended in a 0.5 % sodiumn carboxymethyl cellulose solution, and the suspension was orally given to the animal in a volume of 5 mnl/kg one hour before the start of experiment.
With reference to a method described in “Process in Anxiolytics and Antidepresants,” ediled by Showa Ueki and Tatsuo Furukawa, Ishiyaku Shuppansha, 56-59 (1981) , the agents were tested using experimental boxes having a grid floor and a metal drinking tube in the floor. No water was supplied to the rats for 48 hours before the experiment. Upon lapse of first 24 hours, each group of rats were placed into the experimental box, permitted access to water for 30 seconds and caused to recognize the metal drinking tube. Upon lapse of further 24 hours with access to water prevented, the rats were placed into the box again and permitted access to water on condition that an electric current was passed between the metal drinking tube and the grid to give an electroshock for every 20 times of water drinking behavior to measure the frequency of water drinking behavior for 3 minutes.
The frequency is expessed by a value relative to the frequency of the control which is taken as 100.

[7] = Acute toxicity test (LD50), first part; assay type: in vivo; settings: mouse, in vivo; oral, male ddY mice, observed for 3 days
ddY mice [8] = test: Muscle relaxant effect (traction method), first part; settings: mouse, in vivo, po, 300 mg/kg
Method: as §4
(§8) Compound 3, Compound 13, diazepam or buspirone was suspended in a 0.5 % sodium carboxymethyl cellulose solution, and the suspension was orally administered to 3- to 4-week-old male ddY mice (in groups of 5) in a volume of 10 ml/kg one hour before the start of experiment.
as §6

in vivo = settings: male, ddY, mouse, in vivo
Method: (§9) Effect On Central Nervous System Depressant
a. Pentobarbital Anesthetic Method
Compound 3, Compound 13, diazepam or buspirone was suspended in a 0.5 % sodium carboxymethyl cellulose solution, and the suspension was orally administered to 3- to 4-week-old male ddY mice (in groups of 5 to 10) in a volume of 10 ml/kg one hour before the start of experiment.
The test was conducted with reference to a method described in “Evaluation of Medicinal Efficacies (1), Pharmacological Test Method (1), Basic lectures on Development of Pharmaceuticals,” 144˜145(1971). More specifically, the group of mice were intraperitoneally given pentobarbital at a dose of 40 mg/kg and checked for sleeping time.

ddY mice [9] = test: Sedative effect (spontaneous locomotor activity), first part; settings: mouse, in vivo, po, 300 mg/kg
Method: (§10) Sedative Effect (Spontaneous Locomotor Activity)
as §8
(§11) The test was conducted with reference to a method described in “Evaluation of Medicinal Efficacies (1), Pharmacological Test Method (1), Basic Lectures on Development of Pharmaceuticals,” 50˜54(1971). More specifically, the group of mice were given the test drug and thereafter measured the amount of spontaneous locomotor activity for 10 minutes per mouse rising Animex MK-110 (product of Muromachi Kikai Co., Ltd.).

Wistar rats [10] = test: Elevated plus maze test; assay type: in vivo; settings: for Ratio of entries into open arm: 1 h before test, relative to control = 100
Method: Wistar rats (males weighing 170 to 220 g) were used for experiment in groups of 4 to 9.
The test compound, diazepam or buspirone was suspended in a 0.5 %) sodium carboxymethyl cellulose solution, and the suspension was orally given to the animal in a volume of 5 ml/kg one hour before the start of experiment.
The test was conducted using an experimental device, Model BTA-2, Behavior Analysis System (product of Muromachi Kikai Co., Ltd.) with reference to a method described in Psychopharmacology, 99, 48˜53(1989). […] Each group of rats orally given the test drug were placed in the center square, and the behavior of the animals was recorded for 5 minutes using a behavior analyzer. The ratio of the number of entries into the open arm to the number of entries into all the arms was determined for evaluating the anxiolytic effect.
The ratio of entries into the open arm is expressed by a value relative to the ratio attained by the control which is taken as 100.

ddY mice [11] = test: Effect on central nervous system depressant: ethanol enhancing method, first part; settings: mouse, in vivo, po, 300 mg/kg
Method: as §9
(§12) b. Ethanol Enhancing Method
(§13) Compound 3, Compound 13, diazepam or buspirone was suspended in a 0.5 % sodium carboxymethyl cellulose solution, and the suspension was orally administered to 3- to 4-week-old male ddY mice (in groups of 6) in a volume of 10 ml/kg one hour before the start of experiment.
(§14) The test was conducted with reference to a method described in Japan. J. Pharmacol., 49, 337˜349(1989). More specifically, the group of mice were intraperitoneally given 25 % ethanol at a dose of 20 ml/kg and checked for the time interval between loss and recovery of the righting reflex.

ddY mice [12] = test: Anticonvulsant effect (pentylenetetrazol-induced convulsion method), first part; assay type: in vivo; settings: oral, dose of 300 mg/kg
Method: Anticonvulsant Effect (Pentylenetetrazol-Induced Convulsion Method)
as §13
The test was conducted with reference to a method described in “Evaluation of Medicinal Efficacies (1), Pharmacological Test Method (1), Basic lectures on Development of Pharmaceuticals,” 167˜172(1971).

[13] = Effect on central nervous system depressant (ethanol enhancing method), second part; settings: male, ddY, mouse, in vivo
Method: as §1, §2, §3

Wistar rats [14] = test: Anticonflict test (second part, relieving rate of anxiety); assay type: in vivo; settings: oral, dose of 1.0 mg/kg
Method: as §7
No water was supplied to the rats for 48 hours before the experiment. Upon lapse of first 24 hours, each group of rats were placed into the experimental box, permitted access to water for 30 seconds and caused to recognize the metal drinking tube. Upon lapse of further 24 hours with access to water prevented, the rats were placed into the box again and permitted access to water on condition that an electric current was passed between the metal drinking tube and the grid to give an electroshock for every 20 times of water drinking behavior to measure the frequency of water drinking behavior for 3 minutes. Anxiolytic effect was evaluated as relieving rate of anxiety as calculated by the following equation.

[15] = Muscle relaxant effect (traction method), first part; settings: male, ddY, mouse, in vivo, po
Method: as §4, §8, §6

[16] = Muscle relaxant effect (traction method), second part; settings: male, ddY, mouse, in vivo, po
Method: as §4, §5, §6

[17] = Sedative effect (spontaneous locomotor activity), first part; settings: male, ddY, mouse, in vivo, po
Method: as §10, §8, §11

[18] = Effect on central nervous system depressant: ethanol enhancing method, first part; settings: male, ddY, mouse, in vivo
Method: as §9, §12, §13, §14

## COc1ccc(C(=O)N2C(=O)CC[C@H]3[C@H](O)CC[C@H]32)cc1 (racemic) [Compound 1′a-1, (1RS, 6RS, 7RS)-7-hydroxy-2-(4-methoxybenzoyl)-2-azabicyclo-[4.3.0]nonan-3-one]
ddY mice [1]; mouse, in vivo, po, 300 mg/kg
  Ethanol enhancing effect (in words): no ethanol enhancing effect
ddY mice [2]; dose 2000 mg/kg oral
  Number of death: 0
ddY mice [2]; dose 3000 mg/kg oral
  Number of death: 2
ddY mice [3]; mouse, in vivo, po, 300 mg/kg
  Muscle relaxant effect (in words): no muscle relaxant effect
ddY mice [4]; mouse, in vivo, po, 300 mg/kg
  Sedative effect (in words): no sedative effect
ddY mice [5]
  Anticonvulsant effect (in words): no anticonvulsant effect

## COc1ccc(C(=O)N2C(=O)CCC3CCCC32)cc1 (centres unmarked) [Compound 3, 2-(4-methoxybenzoyl)-2-azabicyclo[4.3.0]nonane-3-one]
Wistar rats [6]; dose 0.001 mg/kg oral
  Frequency of water drinking behavior: 126%
Wistar rats [6]; dose 0.01 mg/kg oral
  Frequency of water drinking behavior: 162%
Wistar rats [6]; dose 0.1 mg/kg oral
  Frequency of water drinking behavior: 164%
Wistar rats [6]; dose 1.0 mg/kg oral
  Frequency of water drinking behavior: 166%
Wistar rats [6]
  Anxiolytic effect in the anticonflict test (in words): increase in the frequency of water drinking behavior
[7]
  LD50 at 3 days: > 2000 mg/kg
ddY mice [8]
  Muscle relaxant effect (in words): no muscle relaxant effect
In vivo
  ED50 at 1 h: ≥ 300 mg/kg
ddY mice [9]
  Sedative effect (in words): no sedative effect
Wistar rats [10]; dose 0.001 oral
  Ratio of entries into open arm: 195
Wistar rats [10]; dose 0.01 oral
  Ratio of entries into open arm: 219
Wistar rats [10]; dose 0.1 oral
  Ratio of entries into open arm: 248
Wistar rats [10]; oral, dose of 0.001 mg/kg or greater
  Anxiolytic effect in the elevated plus maze (in words): increase in the number of entries into the open arm
ddY mice [11]
  Ethanol enhancing effect (in words): no ethanol enhancing effect
ddY mice [12]
  Anticonvulsant effect (in words): no anticonvtilsant effect

## CN1C(=O)CN=C(c2ccccc2)c2cc(Cl)ccc21 [Diazepam, diazepam, reference compound]
[13]
  ED50 at 1 h: 0.48 mg/kg
Wistar rats [14]
  Anxiolytic effect in the anticonflict test (in words): almost ineffective
Wistar rats [6]; dose 1.0 mg/kg oral
  Frequency of water drinking behavior: 96%
Wistar rats [6]
  Anxiolytic effect in the anticonflict test (in words): almost ineffective
[15]
  ED50 at 1 h: 2.2 mg/kg
[16]
  ED50 at 1 h: 2.2 mg/kg
In vivo
  ED50 at 1 h: 0.53 mg/kg
[17]
  ED50 at 1 h: 1.7 mg/kg
Wistar rats [10]; dose 1.0 oral
  Ratio of entries into open arm: 103
Wistar rats [10]; dose 10.0 oral
  Ratio of entries into open arm: 144
[18]
  ED50 at 1 h: 0.48 mg/kg
ddY mice [4]; oral, mice, 1 h before test
  ED6O, sedative effect (spontaneous locomotor activity up to 50% of control): 1.7 mg/kg
ddY mice [5]; Mus musculus, 1 h, read-out: ED50, anticonvulsant effect (no death within 60 minutes)
  ED50: 0.35 mg/kg

## O=C1CC2CCCCC2N1 (centres unmarked) [Comparison Compound, 2-azabicyclo[3.4.0]nonane-2-one]
ddY mice [1]; oral, dose of 300 mg/kg
  Ethanol enhancing effect (in words): no ethanol enhancing effect
ddY mice [3]; oral, dose of 300 mg/kg
  Muscle relaxant effect (in words): no muscle relaxant effect
ddY mice [4]; oral, dose of 300 mg/kg
  Sedative effect (in words): no sedative effect
ddY mice [5]
  Anticonvulsant effect (in words): no anticonvulsant effect
